The target in assay [1] is T1, human GluN1/GluN2B NMDA receptors (Homo sapiens, UniProt Q05586+Q13224).
T1 construct: expressed in transfected cells
Description: Calcium flux (FLIPR) assay on cloned human GluN1/GluN2B ion channels expressed in mammalian cells, standard assay. Conditions: glutamate ~EC40, 10 μM glycine, stable cell line with Tet-On induced expression. Type of assay: cell-based. The method, then:
(§1) NMDA receptors are ion channels that are highly permeable to Ca^2+ ions, rendering it possible to monitor NMDA receptor function using cell-based calcium flux assay. In this assay, co-agonists glutamate and glycine are added to cells heterologously expressing human GluN1/GluN2B NMDA receptors to initiate cellular Ca^2+ influx. The time course of the changes in intracellular calcium is measured using a fluorescent dye and a FLIPR (Fluorometric Imaging Plate Reader) device.
(§2) Twenty four hours before measurements, the expression of the NMDA receptors in the stable cell line is induced with Tet-On inducible system in the presence of a non-selective NMDA receptor blocker. On the day of the experiment, cell culture media is carefully washed and the cells are loaded with Calcium 5 Dye Kit (Molecular Devices) in dye loading buffer containing 137 mM NaCl, 4 mM KCl, 2 mM CaCl2, 0.5 mM MgCl2 (standard assay) or 1.5 mM MgCl2 (HTS assay), 10 mM HEPES and 5 mM D-glucose; pH 7.4. After 1 h incubation at the room temperature, the dye is washed away with the assay buffer (137 mM NaCl (standard assay) or 150 mM (HTS assay), 4 mM KCl (standard assay) or 3 mM (HTS assay), 2 mM CaCl2, 0.01 mM EDTA, 10 mM HEPES and 5 mM D-glucose; pH 7.4) In the FLIPR TETRA reader, various concentrations of the test compounds are added to the cells for 5 min while fluorescence is monitored to detect potential agonist activity. Next, co-agonists, glutamate and glycine are added for another 5 minutes. The concentration of glutamate corresponding to ˜EC40 (standard assay) or EC40 (HTS assay) is used to maximize the assay's signal window and ability to detect NMDA receptor antagonists and negative allosteric modulators. A saturating concentration (10 μM) of glycine is also present in the assay. A non-selective NMDA receptor antagonist, (+)MK-801 is used as a positive control for antagonist activity. The fluorescent signal in the presence of test compounds is quantified and normalized to the signal defined by the appropriate control wells.

The target of assay [2] is T2, human GluN1/GluN2B NMDA receptors (Homo sapiens, UniProt Q13224).
T2 construct: expressed in transfected cells
T2 sequence (Q13224 27-1484, other chains not shown): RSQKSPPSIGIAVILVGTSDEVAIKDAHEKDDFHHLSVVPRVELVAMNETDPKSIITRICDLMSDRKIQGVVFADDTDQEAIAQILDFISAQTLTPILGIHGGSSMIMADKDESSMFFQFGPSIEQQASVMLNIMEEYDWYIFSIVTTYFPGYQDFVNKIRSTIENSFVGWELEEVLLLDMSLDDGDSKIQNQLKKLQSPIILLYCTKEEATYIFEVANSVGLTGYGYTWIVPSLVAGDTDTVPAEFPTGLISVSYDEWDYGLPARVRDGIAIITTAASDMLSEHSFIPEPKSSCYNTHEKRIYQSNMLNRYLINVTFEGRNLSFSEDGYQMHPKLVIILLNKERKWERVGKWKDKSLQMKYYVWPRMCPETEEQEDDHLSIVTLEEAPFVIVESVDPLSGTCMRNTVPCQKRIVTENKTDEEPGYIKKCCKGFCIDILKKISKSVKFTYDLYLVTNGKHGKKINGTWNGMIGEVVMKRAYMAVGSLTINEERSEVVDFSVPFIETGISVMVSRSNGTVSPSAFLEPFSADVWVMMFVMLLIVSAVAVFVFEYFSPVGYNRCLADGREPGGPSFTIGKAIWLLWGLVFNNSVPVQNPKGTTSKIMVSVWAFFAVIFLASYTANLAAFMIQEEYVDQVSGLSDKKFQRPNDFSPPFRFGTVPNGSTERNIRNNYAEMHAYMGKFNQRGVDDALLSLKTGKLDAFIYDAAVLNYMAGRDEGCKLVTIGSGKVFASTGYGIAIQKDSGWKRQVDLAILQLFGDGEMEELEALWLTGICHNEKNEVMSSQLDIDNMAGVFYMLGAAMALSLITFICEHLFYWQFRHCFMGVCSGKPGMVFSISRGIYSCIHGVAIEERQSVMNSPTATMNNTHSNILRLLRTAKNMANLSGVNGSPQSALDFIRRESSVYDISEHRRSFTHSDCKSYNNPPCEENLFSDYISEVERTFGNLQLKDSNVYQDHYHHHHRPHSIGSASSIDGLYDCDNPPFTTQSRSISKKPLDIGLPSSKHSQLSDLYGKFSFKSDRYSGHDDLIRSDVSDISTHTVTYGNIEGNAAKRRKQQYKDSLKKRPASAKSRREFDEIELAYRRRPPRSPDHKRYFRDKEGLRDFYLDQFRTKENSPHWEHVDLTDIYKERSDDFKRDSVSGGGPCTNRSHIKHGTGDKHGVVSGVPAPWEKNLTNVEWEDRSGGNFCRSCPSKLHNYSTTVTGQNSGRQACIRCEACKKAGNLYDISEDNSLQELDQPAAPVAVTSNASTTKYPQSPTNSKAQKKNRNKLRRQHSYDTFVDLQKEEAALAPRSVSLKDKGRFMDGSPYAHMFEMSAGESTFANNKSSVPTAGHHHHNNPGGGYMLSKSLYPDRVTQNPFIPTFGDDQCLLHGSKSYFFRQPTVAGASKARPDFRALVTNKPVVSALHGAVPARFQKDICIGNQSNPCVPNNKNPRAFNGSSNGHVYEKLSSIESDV
The description is as above. The assay is classed as cell-based. Conditions: glutamate ~EC40, 10 μM glycine, stable cell line with Tet-On induced expression. As for the experimental part:
as §1, §2

T1 sequence (Q13224 27-1484, other chains not shown): as above

By IC50 is commonly meant the concentration at which inhibition is half-maximal. For the compound `CN(C)C(=O)C1CN(Cc2cncc(-c3ccc(Cl)c(OC(F)F)c3)n2)C(=O)O1` (racemic) [Example 55, (R/S)-3-[[6-[4-Chloro-3-(difluoromethoxy)phenyl]pyrazin-2-yl]methyl]-N,N-dimethyl-2-oxo-oxazolidine-5-carboxamide], in assay [1], the half-maximal inhibitory concentration (IC50) is 1390 nM.

Regarding `CNC(=O)C1CN(Cc2cncc(-c3ccc(Cl)c(OC(F)F)c3)n2)C(=O)O1` (racemic) [Example 56, (R/S)-3-[[6-[4-Chloro-3-(difluoromethoxy)phenyl]pyrazin-2-yl]methyl]-N-methyl-2-oxo-oxazolidine-5-carboxamide], the IC50 in assay [1] turned out to be 2050 nM.

As for `O=C1OC(C(=O)N2CCC2)CN1Cc1cncc(-c2ccc(F)c(C(F)F)c2)n1` (racemic) [Example 58, (R/S)-5-(Azetidine-1-carbonyl)-3-[[6-[3-(difluoromethyl)-4-fluoro-phenyl]pyrazin-2-yl]methyl]oxazolidin-2-one], the 50% inhibitory concentration (IC50) in assay [1] is over 3000 nM.

As to `CNC(=O)C1CN(Cc2cncc(-c3ccc(F)c(OC(F)F)c3)n2)C(=O)O1` (racemic) [Example 60, (R/S)-3-[[6-[3-(Difluoromethoxy)-4-fluoro-phenyl]pyrazin-2-yl]methyl]-N-methyl-2-oxo-oxazolidine-5-carboxamide], the IC50 in assay [1] was 5390 nM.

Turning to `O=C1OC(C(=O)N2CCC2)CN1Cc1cncc(-c2ccc(F)c(OC(F)F)c2)n1` (racemic) [Example 61, (R/S)-5-(Azetidine-1-carbonyl)-3-[[6-[3-(difluoromethoxy)-4-fluoro-phenyl]pyrazin-2-yl]methyl]oxazolidin-2-one], the IC50 in assay [1] was 5740 nM.

As for `CN(C)C(=O)C1CN(Cc2cncc(-c3ccc(F)c(C(C)(F)F)c3)n2)C(=O)O1` (racemic) [Example 62, (R/S)-3-[[6-[3-(1,1-Difluoroethyl)-4-fluoro-phenyl]pyrazin-2-yl]methyl]-N,N-dimethyl-2-oxo-oxazolidine-5-carboxamide], the half-inhibitory concentration (IC50) in assay [1] came out at 3680 nM.

As for `Cc1ncc(-c2ccc(Cl)c(OC(F)F)c2)nc1CN1CCCOC1=O` [Example 37, 3-[[6-[4-Chloro-3-(difluoromethoxy)phenyl]-3-methyl-pyrazin-2-yl]methyl]-1,3-oxazinan-2-one], the half-inhibitory concentration (IC50) in assay [2] worked out at 18 nM.

As to `CC(F)(F)c1cccc(-c2cncc(CN3CC4(CC4)OC3=O)n2)c1` [Example 38, 5-[[6-[3-(1,1-Difluoroethyl)phenyl]pyrazin-2-yl]methyl]-7-oxa-5-azaspiro[2.4]heptan-6-one], the IC50 in assay [2] is 17 nM.

Turning to `CC1(C)CN(Cc2cncc(-c3cccc(C(C)(F)F)c3)n2)C(=O)O1` [Example 39, 3-[[6-[3-(1,1-Difluoroethyl)phenyl]pyrazin-2-yl]methyl]-5,5-dimethyl-oxazolidin-2-one], the half-maximal inhibitory concentration (IC50) in assay [2] stood at 4510 nM.

Take `C[C@@H]1CN(Cc2cncc(-c3cccc(C(C)(F)F)c3)n2)C(=O)O1` [Example 40, (5R)-3-[[6-[3-(1,1-Difluoroethyl)phenyl]pyrazin-2-yl]methyl]-5-methyl-oxazolidin-2-one]: the IC50 in assay [2] amounted to 39 nM.

In the case of `C[C@H]1CN(Cc2cncc(-c3cccc(C(C)(F)F)c3)n2)C(=O)O1` [Example 41, (5S)-3-[[6-[3-(1,1-Difluoroethyl)phenyl]pyrazin-2-yl]methyl]-5-methyl-oxazolidin-2-one], the IC50 in assay [2] worked out at 167 nM.

Consider `CC(F)(F)c1cccc(-c2cncc(CN3CCCOC3=O)n2)c1` [Example 42, 3-[[6-[3-(1,1-Difluoroethyl)phenyl]pyrazin-2-yl]methyl]-1,3-oxazinan-2-one], for which, in assay [2], the IC50 was found to be 105 nM.

On to `Cc1ncc(-c2cccc(C(C)(F)F)c2)nc1CN1CC2(CC2)OC1=O` [Example 43, 5-[[6-[3-(1,1-Difluoroethyl)phenyl]-3-methyl-pyrazin-2-yl]methyl]-7-oxa-5-azaspiro[2.4]heptan-6-one], for which, in assay [2], the IC50 was 203 nM.

Consider `Cc1ncc(-c2cccc(C(C)(F)F)c2)nc1CN1CC(C)(C)OC1=O` [Example 44, 3-[[6-[3-(1,1-Difluoroethyl)phenyl]-3-methyl-pyrazin-2-yl]methyl]-5,5-dimethyl-oxazolidin-2-one], for which the half-inhibitory concentration (IC50) in assay [2] is over 3000 nM.

Turning to `Cc1ncc(-c2cccc(C(C)(F)F)c2)nc1CN1CCCOC1=O` [Example 45, 3-[[6-[3-(1,1-Difluoroethyl)phenyl]-3-methyl-pyrazin-2-yl]methyl]-1,3-oxazinan-2-one], in assay [2], the IC50 came out at 127 nM.

Take `C[C@@H]1COC(=O)N1Cc1cncc(-c2ccc(F)c(C(C)(F)F)c2)n1` [Example 46, (4R)-3-[[6-[3-(1,1-Difluoroethyl)-4-fluoro-phenyl]pyrazin-2-yl]methyl]-4-methyl-oxazolidin-2-one]: the half-inhibitory concentration (IC50) in assay [2] was determined as 166 nM.

As for `C[C@H]1COC(=O)N1Cc1cncc(-c2ccc(F)c(C(C)(F)F)c2)n1` [Example 47, (4S)-3-[[6-[3-(1,1-Difluoroethyl)-4-fluoro-phenyl]pyrazin-2-yl]methyl]-4-methyl-oxazolidin-2-one], the IC50 in assay [2] stood at 624 nM.

On to `CC(F)(F)c1cccc(-c2cncc(CN3CCC4(CC4)OC3=O)n2)c1` [Example 48, 6-[[6-[3-(1,1-Difluoroethyl)phenyl]pyrazin-2-yl]methyl]-8-oxa-6-azaspiro[2.5]octan-7-one], for which the IC50 in assay [2] worked out at 124 nM.

On to `O=C1OC2(CCN1Cc1cncc(-c3ccc(F)c(OC(F)F)c3)n1)CC2` [Example 49, 6-[[6-[3-(Difluoromethoxy)-4-fluoro-phenyl]pyrazin-2-yl]methyl]-8-oxa-6-azaspiro[2.5]octan-7-one], for which, in assay [2], the 50% inhibitory concentration (IC50) turned out to be 48 nM.

In the case of `O=C1OC2(CCN1Cc1cncc(-c3ccc(Cl)c(OC(F)F)c3)n1)CC2` [Example 50, 6-[[6-[4-Chloro-3-(difluoromethoxy)phenyl]pyrazin-2-yl]methyl]-8-oxa-6-azaspiro[2.5]octan-7-one], in assay [2], the IC50 is 49 nM.

With `O=C1OC2(CCN1Cc1cncc(-c3ccc(F)c(C(F)F)c3)n1)CC2` [Example 52, 6-[[6-[3-(Difluoromethyl)-4-fluoro-phenyl]pyrazin-2-yl]methyl]-8-oxa-6-azaspiro[2.5]octan-7-one], the IC50 in assay [2] was determined as 61 nM.

Take `Cc1ncc(-c2ccc(F)c(C(F)F)c2)nc1CN1CCC2(CC2)OC1=O` [Example 53, 6-[[6-[3-(Difluoromethyl)-4-fluoro-phenyl]-3-methyl-pyrazin-2-yl]methyl]-8-oxa-6-azaspiro[2.5]octan-7-one]: the IC50 in assay [2] is 102 nM.

As for `Cc1ncc(-c2ccc(F)c(OC(F)F)c2)nc1CN1CCC2(CC2)OC1=O` [Example 54, 6-[[6-[3-(Difluoromethoxy)-4-fluoro-phenyl]-3-methyl-pyrazin-2-yl]methyl]-8-oxa-6-azaspiro[2.5]octan-7-one], the concentration for half-maximal inhibition (IC50) in assay [2] turned out to be 74 nM.

Take `O=C1OC(C(=O)N2CCC2)CN1Cc1cncc(-c2ccc(Cl)c(OC(F)F)c2)n1` (centres unmarked) [Example 57, 5-(Azetidine-1-carbonyl)-3-[[6-[4-chloro-3-(difluoromethoxy)phenyl]pyrazin-2-yl]methyl]oxazolidin-2-one]: in assay [2], the IC50 turned out to be 2000 nM.

For the compound `O=C1OC2(CNC2)CN1Cc1cncc(-c2ccc(Cl)c(OC(F)F)c2)n1` [Example 67, 6-[[6-[4-Chloro-3-(difluoromethoxy)phenyl]pyrazin-2-yl]methyl]-8-oxa-2,6-diazaspiro[3.4]octan-7-one], in assay [2], the IC50 amounted to 530 nM.

`CN1CC2(C1)CN(Cc1cncc(-c3ccc(Cl)c(OC(F)F)c3)n1)C(=O)O2` [Example 68, 6-[[6-[4-Chloro-3-(difluoromethoxy)phenyl]pyrazin-2-yl]methyl]-2-methyl-8-oxa-2,6-diazaspiro[3.4]octan-7-one]: the IC50 in assay [2] was found to be 599 nM.
